Several values for one entry are separate records, joined by “and”; a condition that tells them apart may be missing. Equal values may be shown once. Read-outs that look alike come from different tables or passages of the source. Each block holds one compound with its values, some of them ahead of it.
Experiments:
COX-1 (ovine) = molecular target: T1, COX-1 (ovine) (Ovis aries, UniProt P05979); experiment: COX-1 inhibition, ELISA kit (Cayman Chemical); type: biochemical; conditions: ovine COX-1, ELISA
T1 construct: purchased Cayman Chemical 560131
T1 sequence (P05979 25-600): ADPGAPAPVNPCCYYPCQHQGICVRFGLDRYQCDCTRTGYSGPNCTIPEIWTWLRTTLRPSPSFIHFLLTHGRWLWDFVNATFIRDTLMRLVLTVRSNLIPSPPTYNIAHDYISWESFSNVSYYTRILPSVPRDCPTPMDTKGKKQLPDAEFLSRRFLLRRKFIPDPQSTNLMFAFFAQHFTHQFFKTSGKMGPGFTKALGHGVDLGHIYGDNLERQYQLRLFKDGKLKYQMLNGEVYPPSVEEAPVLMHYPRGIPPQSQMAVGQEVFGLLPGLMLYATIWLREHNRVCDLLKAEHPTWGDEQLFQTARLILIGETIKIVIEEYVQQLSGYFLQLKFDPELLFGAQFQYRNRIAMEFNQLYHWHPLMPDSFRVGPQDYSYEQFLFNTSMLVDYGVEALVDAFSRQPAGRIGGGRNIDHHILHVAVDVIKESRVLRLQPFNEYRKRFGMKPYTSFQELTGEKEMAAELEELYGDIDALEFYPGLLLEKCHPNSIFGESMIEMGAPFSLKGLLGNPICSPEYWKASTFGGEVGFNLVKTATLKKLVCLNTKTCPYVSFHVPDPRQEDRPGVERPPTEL
Excerpt: (§1) These enzymes are crucial targets in the development of anti-inflammatory agents due to their roles in prostaglandin synthesis, with COX-1 associated with normal physiological functions and COX-2 predominantly involved in inflammation.

[1] = tested on: HepG-2 (liver cancer) cell line; experiment: MTT cytotoxicity assay, HepG-2; type: cell-based, homo sapiens, human; conditions: for IC50: MTT, HepG-2
Experimental: (§2) MCF-7 and HepG-2 cell lines (provided by the Cell Culture Department, VACSERA, Egypt) were seeded in each 96-well tissue culture plate well at a concentration of 1 × 10^5 cells/ml, adding 100 µl/well. Incubation at 37 °C followed for 24 h until a full monolayer was established. The growth medium was later aspirated, and the cell monolayer was rinsed twice using wash media. It was then subjected to a two-fold dilution in an RPMI medium containing 2% serum, which is regarded as a maintenance medium. Later, 0.1 ml of each dilution was added to individual wells. Three wells were reserved for use as controls and received only the maintenance medium. The plate was then incubated at 37 °C and further monitored accordingly. The marks of toxicity to be checked on the cells include disruption of the cell monolayer, cell rounding and shrinking, or the appearance of granules. MTT solution is prepared from BIO BASIC CANADA INC with a 5 mg/ml strength in PBS. To ensure the MTT and media are well mixed, add 20 µl of MTT solution to each well and shake the plate. The MTT will be metabolized by incubating the plate at 37 °C with 5% CO2 for one to five hr. If there is any residual substance, get rid of the rest by drying the plate on paper towels. Add DMSO (200 µl) to dissolve the formazan (MTT metabolic product) and then put the plate on the shaking table set at 150 rpm for 5 min to assure that the formazan is fully dissolved into the solvent. Measure the optical density at 560 nm and subtract the background signal at 620 nm. The optical density value reflects directly the number of cells[28]–[30]. MCF-7 (breast cancer) and HepG-2 (liver cancer) cell lines.
(§3) The antitumor effects of the newly synthesized HDN ligand and its metal complexes with Cu(II) and Gd(III) were tested against MCF-7 (breast cancer) and HepG-2 (liver cancer) cell lines using the MTT assay[28]–[30].. This method measures cell viability based on mitochondrial activity, clearly indicating each compound’s cytotoxic potential. The key findings from these tests are outlined in Tables 4, S8, and S9 and illustrated in Figures S21-S31.

[2] = tested on: MCF-7 (breast cancer) cell line; experiment: MTT cytotoxicity assay, MCF-7; type: cell-based, homo sapiens, human; conditions: for IC50: MTT, MCF-7
Experimental: as §2, §3

[3] = molecular target: T2, recombinant COX-2 (human) (Homo sapiens, UniProt P35354); experiment: COX-2 inhibition, ELISA kit (Cayman Chemical); type: biochemical; conditions: for IC50: human recombinant COX-2, ELISA; for COX-2 selectivity index (S.I.): ratio of COX-1 IC50 to COX-2 IC50
T2 construct: purchased Cayman Chemical 560131
T2 sequence (P35354 18-604): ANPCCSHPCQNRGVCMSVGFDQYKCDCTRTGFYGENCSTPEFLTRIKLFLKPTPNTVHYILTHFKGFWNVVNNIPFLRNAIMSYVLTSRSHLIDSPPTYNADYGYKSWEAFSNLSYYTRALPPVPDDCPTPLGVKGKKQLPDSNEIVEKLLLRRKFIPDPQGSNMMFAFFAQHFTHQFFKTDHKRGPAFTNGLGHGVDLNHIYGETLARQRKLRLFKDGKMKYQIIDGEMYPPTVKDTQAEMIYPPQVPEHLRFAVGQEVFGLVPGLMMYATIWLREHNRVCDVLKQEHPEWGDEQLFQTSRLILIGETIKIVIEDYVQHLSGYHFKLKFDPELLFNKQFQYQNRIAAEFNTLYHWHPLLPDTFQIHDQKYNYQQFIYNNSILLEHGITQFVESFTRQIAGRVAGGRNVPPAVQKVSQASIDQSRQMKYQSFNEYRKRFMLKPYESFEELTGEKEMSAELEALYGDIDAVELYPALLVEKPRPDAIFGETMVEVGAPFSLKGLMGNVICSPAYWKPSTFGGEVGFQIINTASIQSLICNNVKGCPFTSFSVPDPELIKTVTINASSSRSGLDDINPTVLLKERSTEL
Excerpt: as §1

[4] = tested on: MCF-7 (breast cancer) cell line; conditions: cited from earlier work
[5] = tested on: HepG-2 (liver cancer) cell line; conditions: cited from earlier work
[6] = Solubility in organic solvents; type: physicochemical

IC50 (COX-1 (ovine)): 6 µM | IC50 [3]: 0.95 µM | COX-2 selectivity index (S.I.) [3]: 6.31
Compound: O.O.O.O.O=C(Cc1ccccc1Nc1c(Cl)cccc1Cl)NN=Cc1c(O)ccc2ccccc12.O=C(Cc1ccccc1Nc1c(Cl)cccc1Cl)NN=Cc1c(O)ccc2ccccc12.O=[N+]([O-])[O-].O=[N+]([O-])[O-].O=[N+]([O-])[O-].[Gd+3] [Gd(III)-HDN, [Gd(HDN)2(NO3)2]NO3.4H2O]
Inhibition % ([1]; HepG-2, 0.31 µM/ml): 0.45% | Inhibition % ([1]; HepG-2, 0.62 µM/ml): 0.40% | Inhibition % ([1]; HepG-2, 1.25 µM/ml): 7.98% | Inhibition % ([1]; HepG-2, 2.50 µM/ml): 53.05% | Inhibition % ([1]; HepG-2, 5.00 µM/ml): 81.14% | Inhibition % ([1]; HepG-2, 10.00 µM/ml): 95.27% | Inhibition % ([1]; HepG-2, 10.00 µM/ml, listed as Gd(III) complex): exceeding 95% | IC50 [1]: 2.47 µM | Inhibition % ([2]; MCF-7, 0.31 µM/ml): 18.33% | Inhibition % ([2]; MCF-7, 0.62 µM/ml): 50.83% | Inhibition % ([2]; MCF-7, 1.25 µM/ml): 70.06% | Inhibition % ([2]; MCF-7, 2.50 µM/ml): 75.34% | Inhibition % ([2]; MCF-7, 5.00 µM/ml): 96.71% | Inhibition % ([2]; MCF-7, 10.00 µM/ml): 96.86% | Inhibition % ([2]; MCF-7, 10.00 µM/ml, listed as Gd(III) complex): exceeding 95% | IC50 [2]: 0.8 µM

IC50 (COX-1 (ovine)): 8.5 µM | IC50 [3]: 0.62 µM | COX-2 selectivity index (S.I.) [3]: 13.71
Compound: O=C(Cc1ccccc1Nc1c(Cl)cccc1Cl)NN=Cc1c([O-])ccc2ccccc12.O=C(Cc1ccccc1Nc1c(Cl)cccc1Cl)NN=Cc1c([O-])ccc2ccccc12.[Co+2] [Co(II)-HDN, [Co(DN)2]]

Compound: [Cu(DN)2]2.5H2O [Cu(II)-HDN]
Inhibition % ([1]; HepG-2, 0.31 µM/ml): 2.96% | Inhibition % ([1]; HepG-2, 0.62 µM/ml): 35.16% | Inhibition % ([1]; HepG-2, 1.25 µM/ml): 61.65% | Inhibition % ([1]; HepG-2, 2.50 µM/ml): 85.53% | Inhibition % ([1]; HepG-2, 5.00 µM/ml): 97.32% | Inhibition % ([1]; HepG-2, 10.00 µM/ml): 97.38% | Inhibition % ([1]; HepG-2, 10.00 µM/ml, listed as Cu(II) complex): exceeding 95% | IC50 [1]: 1 µM | Inhibition % ([2]; MCF-7, 0.31 µM/ml): 16.98% | Inhibition % ([2]; MCF-7, 0.62 µM/ml): 63.27% | Inhibition % ([2]; MCF-7, 1.25 µM/ml): 84.90% | Inhibition % ([2]; MCF-7, 2.50 µM/ml): 97.18% | Inhibition % ([2]; MCF-7, 5.00 µM/ml): 97.39% | Inhibition % ([2]; MCF-7, 10.00 µM/ml): 97.49% | Inhibition % ([2]; MCF-7, 10.00 µM/ml, listed as Cu(II) complex): exceeding 95% | IC50 [2]: 0.65 µM | times more potent than 5-fluorouracil ([2]; breast cancer cells (MCF-7), from IC50 values): approximately six

Compound: O=c1[nH]cc(F)c(=O)[nH]1 [5-Fluorouracil]
IC50 ([4]; ref [55],[56]): 3.95 µM | IC50 ([5]; ref [55],[56]): 32.5 µM

Compound: O=C(O)Cc1ccccc1Nc1c(Cl)cccc1Cl [Diclofenac sodium]
IC50 ([4]; ref [54],[64]): 1790 µM | IC50 ([5]; ref [54],[64]): 147 µM

IC50 (COX-1 (ovine)): 10.5 µM | IC50 [3]: 0.06 µM | COX-2 selectivity index (S.I.) [3]: 174.5 | solubility in acetone ([6]; organic solvent: acetone): slight solubility | solubility in DMSO and DMF ([6]; organic solvents: DMSO, DMF): dissolved well | solubility in EtOH and MeOH ([6]; organic solvents: EtOH, MeOH): didn’t dissolve
Compound: O=C(Cc1ccccc1Nc1c(Cl)cccc1Cl)N/N=C/c1c(O)ccc2ccccc12 [Ligand [HDN], (E)−2-(2-((2,6-dichlorophenyl)amino)phenyl)-N’-((2-hydroxynaphthalen-1-yl)methylene)acetohydrazide]
inhibition at 31.25 µg/mL ([1]; Homo sapiens, HepG2, HepG-2, 31.25 µg/ml): 12.9% | inhibition at 62.5 µg/mL ([1]; Homo sapiens, HepG2, HepG-2, 62.5 µg/ml): 61.4% | inhibition at 250 µg/mL ([1]; Homo sapiens, HepG2, HepG-2, 250 µg/ml): 96.9% | inhibition at 500 µg/mL ([1]; Homo sapiens, HepG2, HepG-2, 500 µg/ml): 97.2% | inhibition at 1000 µg/mL ([1]; Homo sapiens, HepG2, HepG-2, 1000 µg/ml): 97% | IC50 ([1]; Homo sapiens, HepG2): 152 µM and 70.5 µg/mL | inhibition at 31.25 µg/mL ([2]; Homo sapiens, MCF7, MCF-7, 31.25 µg/ml): 7.98% | inhibition at 62.5 µg/mL ([2]; Homo sapiens, MCF7, MCF-7, 62.5 µg/ml): 52.5% | inhibition at 250 µg/mL ([2]; Homo sapiens, MCF7, MCF-7, 250 µg/ml): 89.2% | inhibition at 500 µg/mL ([2]; Homo sapiens, MCF7, MCF-7, 500 µg/ml): 97.3% | inhibition at 1000 µg/mL ([2]; Homo sapiens, MCF7, MCF-7, 1000 µg/ml): 97.5% | IC50 ([2]; Homo sapiens, MCF7): 178 µM and 82.6 µg/mL

COX-2 selectivity index (S.I.) [3]: 14.15
Compound: O.O=C(Cc1ccccc1Nc1c(Cl)cccc1Cl)NN=Cc1c([O-])ccc2ccccc12.[Ag+] [Ag(I)-HDN, [Ag(DN)(H2O)]]

Compound: CC(C)Cc1ccc(C(C)C(=O)O)cc1 (centres unmarked) [Ibuprofen]
IC50 ([4]; ref [54]): 5060 µM

Compound: N.N.[Cl][Pt][Cl] [Cisplatin]
IC50 ([4]; ref [57],[58]): 15.2 µM | IC50 ([5]; ref [57],[58]): 8.45 µM
